Values quoted from earlier work, collected in patent US20250073171A1, “DRUG DELIVERY SYSTEM FOR THE TREATMENT OF FEMALE SEXUAL INTEREST AND AROUSAL DISORDER” (Freya Pharma Solutions Holding B.V., priority 2023, published 2025).

Tests used:
SHBG = target: T1, SHBG (Homo sapiens, UniProt P04278); settings: bloodstream
T1 sequence (P04278 30-402): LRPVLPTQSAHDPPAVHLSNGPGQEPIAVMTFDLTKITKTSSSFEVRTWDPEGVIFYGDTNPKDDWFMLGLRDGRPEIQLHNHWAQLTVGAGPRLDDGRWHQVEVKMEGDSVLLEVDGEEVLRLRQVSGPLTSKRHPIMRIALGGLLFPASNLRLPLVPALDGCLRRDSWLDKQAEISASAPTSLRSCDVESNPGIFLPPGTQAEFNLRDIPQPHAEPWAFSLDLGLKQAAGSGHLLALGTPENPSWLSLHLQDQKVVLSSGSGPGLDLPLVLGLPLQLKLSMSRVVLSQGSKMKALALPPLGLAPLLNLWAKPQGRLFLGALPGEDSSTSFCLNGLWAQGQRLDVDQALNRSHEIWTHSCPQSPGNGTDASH

albumin = albumin (Homo sapiens, UniProt P02768); settings: bloodstream
Sequence of albumin (P02768 25-609): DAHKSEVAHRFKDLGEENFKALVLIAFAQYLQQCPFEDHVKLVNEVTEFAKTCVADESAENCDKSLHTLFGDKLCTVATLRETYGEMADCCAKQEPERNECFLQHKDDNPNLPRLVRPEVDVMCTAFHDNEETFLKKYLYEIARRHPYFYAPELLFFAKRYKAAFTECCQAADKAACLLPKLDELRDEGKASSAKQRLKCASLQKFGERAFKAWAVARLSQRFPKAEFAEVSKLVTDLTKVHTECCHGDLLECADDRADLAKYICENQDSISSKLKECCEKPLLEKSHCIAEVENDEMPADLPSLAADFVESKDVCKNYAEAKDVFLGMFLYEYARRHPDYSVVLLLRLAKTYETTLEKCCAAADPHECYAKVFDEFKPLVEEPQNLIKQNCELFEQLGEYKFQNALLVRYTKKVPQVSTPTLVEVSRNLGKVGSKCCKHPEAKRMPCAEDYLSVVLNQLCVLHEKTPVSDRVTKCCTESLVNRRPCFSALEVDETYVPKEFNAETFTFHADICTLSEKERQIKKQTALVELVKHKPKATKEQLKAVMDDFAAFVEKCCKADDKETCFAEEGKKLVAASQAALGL

## C[C@]12CC[C@H]3[C@@H](CCC4=CC(=O)CC[C@@]43C)[C@@H]1CC[C@@H]2O [testosterone, 17-[beta]-hydroxyandrost-4-en-3-one]
SHBG
  SHBG-bound testosterone, percentage of total testosterone: 60-70%
albumin
  albumin-bound testosterone, percentage of total testosterone: 30-40%
bloodstream
  free testosterone, percentage of total testosterone: 1-2%
Metabolism of free testosterone
  T1/2 of free testosterone: approximately 10 min
